Data as given in patent US9695154B2, “Heteroaryl inhibitors of sumo activating enzyme” (MILLENNIUM PHARMACEUTICALS, INC., priority 2013, dated 2017).
Structures can show the parent of a compound that is named as a salt.

Molecular target: T1, recombinant human SAE enzyme (Homo sapiens, UniProt Q9UBT2)
T1 sequence (Q9UBT2 1-640): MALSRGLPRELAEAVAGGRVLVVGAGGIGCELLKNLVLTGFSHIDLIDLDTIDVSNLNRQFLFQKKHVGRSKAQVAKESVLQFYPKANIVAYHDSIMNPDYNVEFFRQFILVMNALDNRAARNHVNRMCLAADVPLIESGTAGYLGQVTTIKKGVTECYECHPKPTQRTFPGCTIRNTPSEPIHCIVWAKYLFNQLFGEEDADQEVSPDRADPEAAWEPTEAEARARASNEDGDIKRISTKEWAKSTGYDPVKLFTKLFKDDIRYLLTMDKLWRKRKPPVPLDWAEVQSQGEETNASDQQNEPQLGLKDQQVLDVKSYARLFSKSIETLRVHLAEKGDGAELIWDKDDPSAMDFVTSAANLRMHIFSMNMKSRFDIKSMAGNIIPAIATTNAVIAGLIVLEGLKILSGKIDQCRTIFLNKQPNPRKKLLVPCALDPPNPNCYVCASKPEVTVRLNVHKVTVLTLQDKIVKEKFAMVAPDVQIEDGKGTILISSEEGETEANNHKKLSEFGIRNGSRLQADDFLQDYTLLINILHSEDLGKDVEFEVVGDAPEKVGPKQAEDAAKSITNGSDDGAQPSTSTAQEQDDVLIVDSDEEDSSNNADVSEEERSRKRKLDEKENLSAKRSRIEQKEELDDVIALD
T1 sequence (Q9UBE0 1-346 partner): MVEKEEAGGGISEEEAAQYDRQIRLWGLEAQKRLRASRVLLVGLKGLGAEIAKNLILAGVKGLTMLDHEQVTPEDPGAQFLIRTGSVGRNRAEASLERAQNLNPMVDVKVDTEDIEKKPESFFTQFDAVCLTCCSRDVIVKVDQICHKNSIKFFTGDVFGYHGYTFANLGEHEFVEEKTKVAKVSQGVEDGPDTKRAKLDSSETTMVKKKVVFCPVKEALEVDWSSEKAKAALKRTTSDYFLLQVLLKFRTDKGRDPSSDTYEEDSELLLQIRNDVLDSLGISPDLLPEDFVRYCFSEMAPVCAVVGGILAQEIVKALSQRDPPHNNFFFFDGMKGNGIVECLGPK
Test: SAE HTRF Enzyme Assay
Assay type: biochemical
Conditions: for IC50: class symbols A-C; for inhibition at 0.111 µM: compound concentration 0.111 μM, read-out: Percent Inhibition
How it was run: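 Reaction with 0.11 nM recombinant human SAE, 0.5 μM ATP, 0.01 μM Ubc9-GST, 0.125 μM Sumo-Flag in HEPES pH 7.5, MgCl2, GSH, BSA, 105 min at 24 °C. Stopped with EDTA/KF buffer carrying Eu-anti-Flag and anti-GST-APC; HTRF read after 2 h; % inhibition or IC50.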

Compound | IC50 [nM] | inhibition at 0.111 µM [%]
NS(=O)(=O)OC[C@H]1C[C@@H](Nc2ncncc2C(=O)c2ccn(Cc3ccc(F)cc3F)n2)[C@H](O)[C@@H]1O [Compound I-336, {(1R,2R,3S,4R)-4-[(5-{[1-(2,4-difluorobenzyl)-1H-pyrazol-3-yl]carbonyl}pyrimidin-4-yl)amino]-2,3-dihydroxycyclopentyl}methyl sulfamate] | < 10 | 97
NS(=O)(=O)OC[C@H]1C[C@@H](Nc2ncncc2C(=O)c2ccn(Cc3ccc(Cl)c(Br)c3)c2)[C@@H](F)[C@@H]1O [Compound I-337, {(1R,2R,3R,4R)-4-[(5-{[1-(3-bromo-4-chlorobenzyl)-1H-pyrrol-3-yl]carbonyl}pyrimidin-4-yl)amino]-3-fluoro-2-hydroxycyclopentyl}methyl sulfamate] | < 10 | 98
NS(=O)(=O)OC[C@H]1C[C@@H](Nc2ncncc2C(=O)c2ccn(Cc3ccccc3F)n2)[C@H](O)[C@@H]1O [Compound I-338, {(1R,2R,3S,4R)-4-[(5-{[1-(2-fluorobenzyl)-1H-pyrazol-3-yl]carbonyl}pyrimidin-4-yl)amino]-2,3-dihydroxycyclopentyl}methyl sulfamate] | < 10 | 99
CC#CCn1ccc(C(=O)c2cncnc2N[C@@H]2C[C@H](COS(N)(=O)=O)[C@@H](O)C2)c1 [Compound I-340, {(1R,2S,4R)-4-[(5-{[1-(but-2-yn-1-yl)-1H-pyrrol-3-yl]carbonyl}pyrimidin-4-yl)amino]-2-hydroxycyclopentyl}methyl sulfamate] | < 10 | 94
NS(=O)(=O)OC[C@H]1C[C@@H](Nc2ncncc2C(=O)c2ccn(Cc3csc4ccc(Cl)cc34)c2)C[C@@H]1O [Compound I-341, [(1R,2S,4R)-4-{[5-({1-[(5-chloro-1-benzothiophen-3-yl)methyl]-1H-pyrrol-3-yl}carbonyl)pyrimidin-4-yl]amino}-2-hydroxycyclopentyl]methyl sulfamate] | < 10 | 98
NS(=O)(=O)OC[C@@H]1C[C@@H](Nc2ncncc2C(=O)c2ccn(Cc3ccccc3)n2)C[C@@H]1O [Compound I-342, [(1S,2S,4R)-4-({5-[(1-benzyl-1H-pyrazol-3-yl)carbonyl]pyrimidin-4-yl}amino)-2-hydroxycyclopentyl]methyl sulfamate] | 10 to 100 | 79
NS(=O)(=O)OC[C@H]1C[C@@H](Nc2ncncc2C(=O)c2ccn(Cc3ccc(F)c(C(F)(F)F)c3)n2)[C@H](O)[C@@H]1O [Compound I-343, [(1R,2R,3S,4R)-4-{[5-({1-[4-fluoro-3-(trifluoromethyl)benzyl]-1H-pyrazol-3-yl}carbonyl)pyrimidin-4-yl]amino}-2,3-dihydroxycyclopentyl]methyl sulfamate] | < 10 | 97
CC(C)=C(C)n1ccc(C(=O)c2cncnc2N[C@@H]2C[C@H](COS(N)(=O)=O)[C@@H](O)C2)n1 [Compound I-344, {(1R,2S,4R)-2-hydroxy-4-[(5-{[1-(3-methylbut-2-en-2-yl)-1H-pyrazol-3-yl]carbonyl}pyrimidin-4-yl)amino]cyclopentyl}methyl sulfamate] | 10 to 100 | 77
Cn1ccc(C(=O)c2cncnc2N[C@@H]2C[C@H](COS(N)(=O)=O)[C@@H](O)[C@H]2O)n1 [Compound I-345, [(1R,2R,3S,4R)-2,3-dihydroxy-4-({5-[(1-methyl-1H-pyrazol-3-yl)carbonyl]pyrimidin-4-yl}amino)cyclopentyl]methyl sulfamate] | 100 to 1000 | 54
NS(=O)(=O)OC[C@H]1C[C@@H](Nc2ncncc2C(=O)c2ccn(Cc3cc(Br)ccc3F)n2)C[C@@H]1O [Compound I-346, {(1R,2S,4R)-4-[(5-{[1-(5-bromo-2-fluorobenzyl)-1H-pyrazol-3-yl]carbonyl}pyrimidin-4-yl)amino]-2-hydroxycyclopentyl}methyl sulfamate] | < 10 | 100
Cc1cc(C(=O)c2cncnc2N[C@@H]2C[C@H](COS(N)(=O)=O)[C@@H](O)C2)nn1Cc1cccc(I)c1 [Compound I-347, {(1R,2S,4R)-2-hydroxy-4-[(5-{[1-(3-iodobenzyl)-5-methyl-1H-pyrazol-3-yl]carbonyl}pyrimidin-4-yl)amino]cyclopentyl}methyl sulfamate] | < 10 | > 99
Cc1cc(Cn2ccc(C(=O)c3cncnc3N[C@@H]3C[C@H](COS(N)(=O)=O)[C@@H](O)C3)n2)no1 [Compound I-348, [(1R,2S,4R)-2-hydroxy-4-{[5-({1-[(5-methylisoxazol-3-yl)methyl]-1H-pyrazol-3-yl}carbonyl)pyrimidin-4-yl]amino}cyclopentyl]methyl sulfamate] | < 10 | 94
NS(=O)(=O)OC[C@H]1C[C@@H](Nc2ncncc2C(=O)c2ccn(Cc3cccc(OC(F)(F)F)c3)n2)[C@H](O)[C@@H]1O [Compound I-349, [(1R,2R,3S,4R)-2,3-dihydroxy-4-{[5-({1-[3-(trifluoromethoxy)benzyl]-1H-pyrazol-3-yl}carbonyl)pyrimidin-4-yl]amino}cyclopentyl]methyl sulfamate] | < 10 | 100
NS(=O)(=O)OC[C@H]1C[C@@H](Nc2ncncc2C(=O)c2ccn(Cc3cccc(Br)n3)n2)C[C@@H]1O [Compound I-352, [(1R,2S,4R)-4-{[5-({1-[(6-bromopyridin-2-yl)methyl]-1H-pyrazol-3-yl}carbonyl)pyrimidin-4-yl]amino}-2-hydroxycyclopentyl]methyl sulfamate] | < 10 | 99
CC(C)(O)c1cc(C(=O)c2cncnc2N[C@@H]2C[C@H](COS(N)(=O)=O)[C@@H](O)C2)nn1Cc1cccc(Br)c1 [Compound I-367, {(1R,2S,4R)-4-[(5-{[1-(3-bromobenzyl)-5-(2-hydroxypropan-2-yl)-1H-pyrazol-3-yl]carbonyl}pyrimidin-4-yl)amino]-2-hydroxycyclopentyl}methyl sulfamate] | < 10 | 99
COCc1cc(C(=O)c2cncnc2N[C@@H]2C[C@H](COS(N)(=O)=O)[C@@H](O)C2)nn1Cc1cccc(Br)c1 [Compound I-368, {(1R,2S,4R)-4-[(5-{[1-(3-bromobenzyl)-5-(methoxymethyl)-1H-pyrazol-3-yl]carbonyl}pyrimidin-4-yl)amino]-2-hydroxycyclopentyl}methyl sulfamate] | < 10 | 98
N[C@@H]1[C@H](O)[C@@H](COS(N)(=O)=O)C[C@H]1Nc1ncncc1C(=O)c1ccn(Cc2cccc(Br)c2)n1 [Compound I-370, {(1R,2R,3S,4R)-3-amino-4-[(5-{[1-(3-bromobenzyl)-1H-pyrazol-3-yl]carbonyl}pyrimidin-4-yl)amino]-2-hydroxycyclopentyl}methyl sulfamate.2[HCl]] | 10 to 100 | 78
